In article PMC10029980 (Journal of medicinal chemistry, 2022):

What was measured:
[1] = target: human recombinant PAK2 (full length) (Homo sapiens, UniProt Q13177); experiment: Z'-LYTE FRET kinase assay, PAK2 inhibition; assay type: biochemical
[2] = cited from earlier work
OVCAR3 cells = experiment: MTT cell proliferation, OVCAR3; assay type: cell-based; conditions: for EC50: Homo sapiens, OVCAR-3, 96 h, read-out: EC50 anti-proliferative, OVCAR3
[3] = system: phosphorylation of MEK1 at S298 and of ERK; experiment: MEK and ERK phosphorylation by immunoblot in OVCAR3 and MCF7 cells; assay type: cell-based; conditions: 10 nM, 24 hr
MCF7 cells = experiment: MTT cell proliferation, MCF7; assay type: cell-based; conditions: for EC50: Homo sapiens, MCF7, 96 h, read-out: EC50 anti-proliferative, MCF7
Nluc-PAK1 = Nluc-PAK1 (Homo sapiens, UniProt Q13153+Q96SW2); experiment: Nluc-PAK1 luciferase quantitation of PAK1 expression; assay type: cell-based
MOLT4 cells proteome = experiment: Global multiplexed mass spectrometry proteomics in MOLT4 cells; assay type: cell-based, human; conditions: 1 µM, 5 hr
OMM1 cells = experiment: MTT cell proliferation, OMM1; assay type: cell-based; conditions: MTT assay, 96 hr, PAK2-dependent cells
PAK1 [4] = target: T1, PAK1 (Homo sapiens, UniProt Q13153); experiment: PAK1 degradation in Panc1 cells; assay type: cell-based; conditions: compared with BJG-05-014 and BJG-05-027, Figure S2
[5] = target: human recombinant PAK1 (kinase domain) (Homo sapiens, UniProt Q13153); experiment: Z'-LYTE FRET kinase assay, PAK1 inhibition; assay type: biochemical; conditions: for PAK1 inhibitory activity and selectivity of NVS-PAK1-1 conjugates: tested for PAK1, PAK2 and PAK4 inhibition (Table S1)
HEY-A8 cells = experiment: MTT cell proliferation, HEY-A8; assay type: cell-based; conditions: MTT assay, 96 hr, PAK2-dependent cells
PAK1 [6] = target: T1, PAK1; experiment: PAK1 degradation by immunoblot in MCF7 and OVCAR3 cells; assay type: cell-based
[7] = MCF7 and OVCAR3 cells, 24 hr treatment

Chain of human recombinant PAK1 (kinase domain) (Q13153 270-521 limits assumed): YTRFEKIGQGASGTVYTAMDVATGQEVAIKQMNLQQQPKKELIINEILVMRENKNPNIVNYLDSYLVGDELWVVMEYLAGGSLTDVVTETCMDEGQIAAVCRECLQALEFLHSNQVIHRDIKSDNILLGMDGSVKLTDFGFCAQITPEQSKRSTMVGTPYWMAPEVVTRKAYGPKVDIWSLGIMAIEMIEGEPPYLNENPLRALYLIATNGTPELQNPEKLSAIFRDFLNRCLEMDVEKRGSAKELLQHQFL
T1 sequence (Q13153 whole entry, the tested form may be a part): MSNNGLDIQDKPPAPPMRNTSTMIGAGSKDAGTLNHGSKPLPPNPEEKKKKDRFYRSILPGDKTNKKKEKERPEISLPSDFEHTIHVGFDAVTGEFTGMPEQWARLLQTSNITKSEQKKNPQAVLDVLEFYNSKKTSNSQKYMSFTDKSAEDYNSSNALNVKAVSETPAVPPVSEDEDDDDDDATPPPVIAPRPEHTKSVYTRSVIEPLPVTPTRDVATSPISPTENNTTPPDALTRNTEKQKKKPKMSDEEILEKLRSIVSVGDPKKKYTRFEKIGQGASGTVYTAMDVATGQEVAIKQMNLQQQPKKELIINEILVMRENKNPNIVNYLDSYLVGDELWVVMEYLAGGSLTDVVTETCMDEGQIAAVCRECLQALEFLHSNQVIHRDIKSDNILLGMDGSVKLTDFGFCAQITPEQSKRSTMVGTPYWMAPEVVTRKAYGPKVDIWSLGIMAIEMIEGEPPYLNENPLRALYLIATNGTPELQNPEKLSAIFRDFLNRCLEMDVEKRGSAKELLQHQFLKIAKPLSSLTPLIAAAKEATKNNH
Chain of human recombinant PAK2 (full length) (Q13177 whole entry): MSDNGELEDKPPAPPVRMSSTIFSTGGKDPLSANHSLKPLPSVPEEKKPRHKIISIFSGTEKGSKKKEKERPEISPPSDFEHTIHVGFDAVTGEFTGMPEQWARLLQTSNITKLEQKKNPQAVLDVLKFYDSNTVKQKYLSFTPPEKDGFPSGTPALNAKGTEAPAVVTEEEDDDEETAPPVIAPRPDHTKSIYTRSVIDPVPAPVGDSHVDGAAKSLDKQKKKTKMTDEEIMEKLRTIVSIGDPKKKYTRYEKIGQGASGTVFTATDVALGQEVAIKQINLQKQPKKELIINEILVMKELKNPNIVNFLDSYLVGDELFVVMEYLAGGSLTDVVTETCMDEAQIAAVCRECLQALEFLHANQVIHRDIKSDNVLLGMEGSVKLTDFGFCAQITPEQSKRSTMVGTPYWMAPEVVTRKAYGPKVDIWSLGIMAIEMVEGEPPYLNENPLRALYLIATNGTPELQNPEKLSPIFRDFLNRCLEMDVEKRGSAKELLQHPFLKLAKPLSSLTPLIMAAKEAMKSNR
Chain of Nluc-PAK1 (Q13153 whole entry): as the sequence (Q13153 whole entry, the tested form may be a part) above
Chain of Nluc-PAK1 (Q96SW2 whole entry): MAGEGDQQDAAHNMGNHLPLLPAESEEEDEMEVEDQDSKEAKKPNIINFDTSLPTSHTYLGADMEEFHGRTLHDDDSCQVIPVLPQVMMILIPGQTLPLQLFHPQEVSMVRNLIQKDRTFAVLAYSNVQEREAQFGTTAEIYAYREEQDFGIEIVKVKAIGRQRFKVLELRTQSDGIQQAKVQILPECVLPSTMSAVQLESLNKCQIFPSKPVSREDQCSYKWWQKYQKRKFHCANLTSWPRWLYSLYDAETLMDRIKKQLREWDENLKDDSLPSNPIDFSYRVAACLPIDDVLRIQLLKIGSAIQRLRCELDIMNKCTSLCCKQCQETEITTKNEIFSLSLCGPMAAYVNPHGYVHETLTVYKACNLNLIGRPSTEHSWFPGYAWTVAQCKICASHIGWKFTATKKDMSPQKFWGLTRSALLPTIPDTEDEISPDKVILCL
Chain of Nluc-PAK1 (Q16531 whole entry partner): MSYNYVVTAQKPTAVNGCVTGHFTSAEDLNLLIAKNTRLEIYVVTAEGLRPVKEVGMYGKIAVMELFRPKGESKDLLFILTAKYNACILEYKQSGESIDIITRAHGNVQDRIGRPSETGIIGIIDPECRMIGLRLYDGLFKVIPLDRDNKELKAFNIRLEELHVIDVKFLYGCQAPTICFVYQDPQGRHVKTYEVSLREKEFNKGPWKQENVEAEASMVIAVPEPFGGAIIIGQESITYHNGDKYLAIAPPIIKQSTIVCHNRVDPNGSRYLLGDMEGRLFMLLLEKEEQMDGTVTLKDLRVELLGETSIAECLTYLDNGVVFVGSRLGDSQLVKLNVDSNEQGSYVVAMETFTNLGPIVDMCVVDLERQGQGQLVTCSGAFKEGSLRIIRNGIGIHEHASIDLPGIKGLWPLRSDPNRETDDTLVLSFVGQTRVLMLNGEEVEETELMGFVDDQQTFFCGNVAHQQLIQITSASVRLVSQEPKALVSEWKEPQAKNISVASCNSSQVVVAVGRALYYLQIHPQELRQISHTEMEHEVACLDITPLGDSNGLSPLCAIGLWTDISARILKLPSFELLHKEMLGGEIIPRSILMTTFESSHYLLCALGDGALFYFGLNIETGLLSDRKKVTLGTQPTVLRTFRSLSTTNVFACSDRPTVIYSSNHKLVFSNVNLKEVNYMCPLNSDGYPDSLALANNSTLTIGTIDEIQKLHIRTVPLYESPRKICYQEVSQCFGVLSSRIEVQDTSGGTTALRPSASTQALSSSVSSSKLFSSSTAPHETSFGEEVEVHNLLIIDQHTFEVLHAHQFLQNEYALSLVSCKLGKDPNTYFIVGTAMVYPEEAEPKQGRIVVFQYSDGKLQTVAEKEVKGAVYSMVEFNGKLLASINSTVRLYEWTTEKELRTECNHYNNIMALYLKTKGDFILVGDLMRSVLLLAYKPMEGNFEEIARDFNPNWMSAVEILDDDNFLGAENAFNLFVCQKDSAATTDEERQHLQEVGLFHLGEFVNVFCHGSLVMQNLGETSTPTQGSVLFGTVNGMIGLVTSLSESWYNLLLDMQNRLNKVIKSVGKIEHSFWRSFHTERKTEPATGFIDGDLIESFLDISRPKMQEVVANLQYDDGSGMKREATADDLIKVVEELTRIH

CC(C)NC(=O)N1CC[C@H](NC2=Nc3cc(F)ccc3N(CC(F)F)c3ccc(Cl)cc32)C1 [NVS-PAK1-1]
IC50 [1]: 824 nM | in vivo half-life [2]: short in vivo half-life | EC50 (OVCAR3 cells): 8900 nM | phosphorylation of ERK [3]: no visible impact | phosphorylation of MEK S298 [3]: no visible impact | effect of combination with PAK shRNA on MCF7 cells (MCF7 cells; 100 nM, MCF7 cells with PAK shRNA): lethal | EC50 (MCF7 cells): 11800 nM

O=C1CCC(N2C(=O)c3cccc(NCCCCCCCCNC(=O)N4CC[C@H](NC5=Nc6cc(F)ccc6N(CC(F)F)c6ccc(Cl)cc65)C4)c3C2=O)C(=O)N1 (stereo partly drawn) [BJG-05-039, (3S)-3-((2-chloro-5-(2,2-difluoroethyl)-8-fluoro-5H-dibenzo[b,e][1,4]diazepin-11-yl)amino)-N-(8-((2-(2,6-dioxopiperidin-3-yl)-1,3-dioxoisoindolin-4-yl)amino)octyl)pyrrolidine-1-carboxamide]
maximal loss of the PAK1 protein achieved (Nluc-PAK1): ≤ 70% | reduction in PAK1 expression (Nluc-PAK1; 10 nM, Nluc-PAK1 cells, 24 hr): approximately 70% | downregulation of PAK1 in proteomic analysis (MOLT4 cells proteome): significant downregulation of this kinase was not apparent | downregulation of RNF166, Ikaros (IKZF1) and Aiolos (IKZF3) (MOLT4 cells proteome): strongly downregulated | anti-proliferative activity, OMM1 (OMM1 cells): did not show increased efficacy relative to NVS-PAK1-1 | PAK1 degradation profile in Panc1 cells (PAK1 [4]): most promising profile | IC50 [1]: > 10000 nM | increase of selectivity over PAK2 relative to NVS-PAK-1 ([1]; Table S1): more than ten-fold | PAK1 inhibitory activity and selectivity of NVS-PAK1-1 conjugates [5]: retained PAK1 inhibitory activity and selectivity | EC50 (OVCAR3 cells): 100 nM | anti-proliferative activity, HEY-A8 (HEY-A8 cells): did not show increased efficacy relative to NVS-PAK1-1 | reduction in PAK1 levels by immunoblot (PAK1 [6]; Figure 2A): ~ 50% | concentration at which diminished PAK1 degradation (hook effect) was observed (PAK1 [6]; [7]): ≥ 1 µM | concentration of maximal PAK1 degradation (PAK1 [6]; [7]): 10 nM | PAK1 degradation (PAK1 [6]; MCF7 and OVCAR3 cells, 24 hr treatment, immunoblot): induced degradation of PAK1 | time to partial degradation of PAK1 (PAK1 [6]; MCF7 cells, 10 nM): ≤ 4 h | PAK1 degradation on co-treatment with bortezomib (proteasome inhibitor) (PAK1 [6]; co-treatment with bortezomib): prevented PAK1 destabilization | phosphorylation of ERK [3]: inhibiting phosphorylation of ERK | phosphorylation of MEK S298 [3]: inhibited phosphorylation of MEK S298 | EC50 (MCF7 cells): 86 nM

O=C1CCC(N2C(=O)c3cccc(NCCOCCOCCC(=O)N4CC[C@H](NC5=Nc6cc(F)ccc6N(CC(F)F)c6ccc(Cl)cc65)C4)c3C2=O)C(=O)N1 (stereo partly drawn) [BJG-05-014, 4-((2-(2-(3-((S)-3-((2-chloro-5-(2,2-difluoroethyl)-8-fluoro-5H-dibenzo[b,e][1,4]diazepin-11-yl)amino)pyrrolidin-1-yl)-3-oxopropoxy)ethoxy)ethyl)amino)-2-(2,6-dioxopiperidin-3-yl)isoindoline-1,3-dione]
PAK1 inhibitory activity and selectivity of NVS-PAK1-1 conjugates [5]: retained PAK1 inhibitory activity and selectivity

Nc1cccc2c1CN(C1CCC(=O)NC1=O)C2=O (centres unmarked) [lenalidomide]
anti-proliferative activity, OVCAR3 (OVCAR3 cells; MTT assay, 96 hr): lacked significant antiproliferative effects | anti-proliferative activity, MCF7 (MCF7 cells; MTT assay, 96 hr): lacked significant antiproliferative effects

O=C1CCC(N2C(=O)c3cccc(NCCCCCNC(=O)N4CC[C@H](NC5=Nc6cc(F)ccc6N(CC(F)F)c6ccc(Cl)cc65)C4)c3C2=O)C(=O)N1 (stereo partly drawn) [BJG-05-027, (3S)-3-((2-chloro-5-(2,2-difluoroethyl)-8-fluoro-5H-dibenzo[b,e][1,4]diazepin-11-yl)amino)-N-(5-((2-(2,6-dioxopiperidin-3-yl)-1,3-dioxoisoindolin-4-yl)amino)pentyl)pyrrolidine-1-carboxamide]
PAK1 inhibitory activity and selectivity of NVS-PAK1-1 conjugates [5]: retained PAK1 inhibitory activity and selectivity

Cc1ccc(CO)cc1N(Cc1ccccc1C#N)c1nc(Nc2ccc(N3CCN(CCOCCOCCNc4cccc5c4C(=O)N(C4CCC(=O)NC4=O)C5=O)CC3)c(S(C)(=O)=O)c2)ncc1F (centres unmarked) [BJG-05-093, 2-(((2-((4-(4-(2-(2-(2-((2-(2,6-dioxopiperidin-3-yl)-1,3-dioxoisoindolin-4-yl)amino)ethoxy)ethoxy)ethyl)piperazin-1-yl)-3-(methylsulfonyl)phenyl)amino)-5-fluoropyrimidin-4-yl)(5-(hydroxymethyl)-2-methylphenyl)amino)methyl)benzonitrile]
inhibitor activity of linker conjugates of an ATP-competitive PAK1 inhibitor ([5]; Table S1): retained inhibitor activity
